These results are taken from PubChem BioAssay AID248 (DTP/NCI, 2004).

“And” between values parts separate entries of the source, which are not always exact repeats. Equal entries are not always repeated. Toxic doses and inconclusive results are not listed.

The subject of this assay is L1210 leukemia ip in BDF1 mice, survival T/C. Kind of assay: NCI In Vivo Anticancer Drug Screen. Data for tumor model L1210 Leukemia (intraperitoneal) in B6D2F1 (BDF1) mice. As to conditions: endpoint: mean survival time, higher = longer survival. In short, it runs like this:
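Survival endpoint. Drug-treated group vs vehicle group, expressed as T divided by C. Tumor passaged by transplantation.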

Where [1] appears, read: dose: 100.0 mg/kg/injection, schedule: Q01DX001 (ip), vehicle: Klucel (hydroxypropylcellulose) (HPC).
Setting [2] is: dose: 100.0 mg/kg/injection, schedule: Q01DX009 (ip), vehicle: saline.
[3] abbreviates: dose: 200.0 mg/kg/injection, schedule: Q01DX009 (ip), vehicle: saline.
Setting [4] is: dose: 50.0 mg/kg/injection, schedule: Q01DX009 (ip), vehicle: saline.
Where [5] appears, read: dose: 100.0 mg/kg/injection, schedule: Q01DX001 (ip), vehicle: carboxymethylcellulose (CMC).
The mark [6] stands for this setting: dose: 200.0 mg/kg/injection, schedule: Q01DX001 (ip), vehicle: carboxymethylcellulose (CMC).
Setting [7] is: dose: 12.5 mg/kg/injection, schedule: Q01DX009 (ip), vehicle: saline with Tween-80.
The mark [8] stands for this setting: dose: 50.0 mg/kg/injection, schedule: Q01DX009 (ip), vehicle: saline with Tween-80.

Consider `C=CCC1(O)C(c2ccccc2)=C(c2ccccc2)C(c2ccccc2)=C1c1ccccc1`, for which the T/C reads like this: (dose: 50.0 mg/kg/injection, schedule: Q01DX001 (ip), vehicle: other) 98 % of control; (dose: 100.0 mg/kg/injection, schedule: Q01DX001 (ip), vehicle: other) 96 % of control; (dose: 200.0 mg/kg/injection, schedule: Q01DX001 (ip), vehicle: other) 98 % of control; (dose: 400.0 mg/kg/injection, schedule: Q01DX001 (ip), vehicle: other) 98 % of control.
Regarding `COc1ccc2c(c1)CCC1C2=CCC2C1C(=O)CCC2(OC)OC` (stereo unspecified), the T/C was 98 % of control (dose: 50.0 mg/kg/injection, schedule: Q01DX001 (ip), vehicle: Klucel (hydroxypropylcellulose) (HPC)); 101 % of control under setting [1]; 96 % of control (dose: 200.0 mg/kg/injection, schedule: Q01DX001 (ip), vehicle: Klucel (hydroxypropylcellulose) (HPC)).
For the compound `CC(=O)c1coc(=O)cc1O`, the T/C (dose: 25.0 mg/kg/injection, schedule: Q01DX009 (ip), vehicle: Klucel (hydroxypropylcellulose) (HPC)) was 102 % of control; the T/C (dose: 25.0 mg/kg/injection, schedule: Q04DX003 (ip), vehicle: Klucel (hydroxypropylcellulose) (HPC)) is 97 % of control; the T/C (dose: 50.0 mg/kg/injection, schedule: Q01DX009 (ip), vehicle: Klucel (hydroxypropylcellulose) (HPC)) was 98 % of control; the T/C (dose: 50.0 mg/kg/injection, schedule: Q04DX003 (ip), vehicle: Klucel (hydroxypropylcellulose) (HPC)) was 97 % of control; the T/C under setting [1] is 103 % of control; the T/C (dose: 100.0 mg/kg/injection, schedule: Q01DX009 (ip), vehicle: Klucel (hydroxypropylcellulose) (HPC)) is 98 % of control. In addition, under “dose: 100.0 mg/kg/injection, schedule: Q04DX003 (ip), vehicle: Klucel (hydroxypropylcellulose) (HPC)”, the T/C was 100 % of control.
As for `Nc1c(Cl)ncnc1Nc1ccccc1C(=O)O`, the T/C is 102 % of control (dose: 50.0 mg/kg/injection, schedule: Q01DX001 (ip), vehicle: saline); 93 % of control (dose: 100.0 mg/kg/injection, schedule: Q01DX001 (ip), vehicle: saline); 98 % of control (dose: 200.0 mg/kg/injection, schedule: Q01DX001 (ip), vehicle: saline); 98 % of control (dose: 400.0 mg/kg/injection, schedule: Q01DX001 (ip), vehicle: saline).
In the case of `CCCCOC(=O)C#CC(=O)OCCCC`, the T/C is, setting by setting: (dose: 6.25 mg/kg/injection, schedule: Q01DX009 (ip), vehicle: carboxymethylcellulose (CMC)) 94 % of control; (dose: 6.25 mg/kg/injection, schedule: Q04DX003 (ip), vehicle: carboxymethylcellulose (CMC)) 100 % of control; (dose: 12.5 mg/kg/injection, schedule: Q01DX009 (ip), vehicle: carboxymethylcellulose (CMC)) 96 % of control; (dose: 12.5 mg/kg/injection, schedule: Q04DX002 (ip), vehicle: carboxymethylcellulose (CMC)) 95 % of control and 97 % of control; (dose: 12.5 mg/kg/injection, schedule: Q04DX003 (ip), vehicle: carboxymethylcellulose (CMC)) 97 % of control; (dose: 25.0 mg/kg/injection, schedule: Q04DX002 (ip), vehicle: carboxymethylcellulose (CMC)) 92 % of control and 95 % of control. The T/C was 95 % of control (dose: 25.0 mg/kg/injection, schedule: Q04DX003 (ip), vehicle: carboxymethylcellulose (CMC)) and 90 % of control (dose: 50.0 mg/kg/injection, schedule: Q04DX002 (ip), vehicle: carboxymethylcellulose (CMC)).
Consider `S=C1SCN(C2CCCCCCCCCCC2)CN1C1CCCCCCCCCCC1`, for which the T/C by setting is: (dose: 100.0 mg/kg/injection, schedule: Q04DX003 (ip), vehicle: saline with Tween-80) 96 % of control; (dose: 200.0 mg/kg/injection, schedule: Q04DX003 (ip), vehicle: saline with Tween-80) 91 % of control; (dose: 400.0 mg/kg/injection, schedule: Q04DX003 (ip), vehicle: saline with Tween-80) 95 % of control.
Turning to `COCCCN=C(N)C(N)=NCCCOC`, the T/C is 99 % of control under setting [2]; 100 % of control and 98 % of control (dose: 100.0 mg/kg/injection, schedule: Q04DX003 (ip), vehicle: saline); 98 % of control under setting [3]; 93 % of control and 101 % of control (dose: 200.0 mg/kg/injection, schedule: Q04DX003 (ip), vehicle: saline); 98 % of control (dose: 400.0 mg/kg/injection, schedule: Q01DX009 (ip), vehicle: saline); 93 % of control and 95 % of control (dose: 400.0 mg/kg/injection, schedule: Q04DX003 (ip), vehicle: saline).
For `NC(=O)c1[nH]cnc1[N+]1=NN(c2ccccc2)CC1`, the T/C is, setting by setting: under setting [4], 102 % of control; under setting [2], 94 % of control; under setting [3], 102 % of control.
For the compound `Oc1ccc(I)c2cccnc12`, the T/C (dose: 22.5 mg/kg/injection, schedule: Q01DX009 (ip), vehicle: saline) is 165 % of control; the T/C (dose: 45.0 mg/kg/injection, schedule: Q01DX009 (ip), vehicle: saline) is 240 % of control; the T/C (dose: 90.0 mg/kg/injection, schedule: Q01DX009 (ip), vehicle: saline) was 297 % of control; the T/C under setting [5] is 93 % of control; the T/C under setting [2] is 169 % of control; the T/C (dose: 180.0 mg/kg/injection, schedule: Q01DX009 (ip), vehicle: saline) was 206 % of control. The T/C was 90 % of control under setting [6] and 95 % of control (dose: 400.0 mg/kg/injection, schedule: Q01DX001 (ip), vehicle: carboxymethylcellulose (CMC)).
Regarding `CCCCCCCCC1N(C)CCCN1C`, the T/C is, setting by setting: under setting [7], 98 % of control; (dose: 25.0 mg/kg/injection, schedule: Q01DX001 (ip), vehicle: saline with Tween-80) 105 % of control; (dose: 25.0 mg/kg/injection, schedule: Q01DX009 (ip), vehicle: saline with Tween-80) 86 % of control; (dose: 50.0 mg/kg/injection, schedule: Q01DX001 (ip), vehicle: saline with Tween-80) 105 % of control; under setting [8], 98 % of control and 101 % of control; (dose: 100.0 mg/kg/injection, schedule: Q01DX001 (ip), vehicle: saline with Tween-80) 97 % of control and 101 % of control.
For the compound `CCCCCCCCCCCCCCCC(=O)N(CCCN)CCCN`, the T/C is 109 % of control under setting [7]; 98 % of control (dose: 12.5 mg/kg/injection, schedule: Q04DX003 (ip), vehicle: saline); 103 % of control (dose: 25.0 mg/kg/injection, schedule: Q04DX003 (ip), vehicle: saline); 101 % of control (dose: 50.0 mg/kg/injection, schedule: Q04DX003 (ip), vehicle: saline).
As to `CCNC1CCCCC1`, the T/C is 104 % of control under setting [8] and 107 % of control (dose: 100.0 mg/kg/injection, schedule: Q01DX009 (ip), vehicle: saline with Tween-80).
With `O=C1CCC(OC(=O)c2ccccc2)CCN1` (stereo unspecified), the T/C (dose: 100.0 mg/kg/injection, schedule: Q01DX001 (ip), vehicle: acetone) was 102 % of control; the T/C (dose: 200.0 mg/kg/injection, schedule: Q01DX001 (ip), vehicle: acetone) was 96 % of control; the T/C (dose: 400.0 mg/kg/injection, schedule: Q01DX001 (ip), vehicle: acetone) is 94 % of control.
Regarding `Nc1nc2ncc(CCCNc3ccc(C(=O)NC(CCC(=O)O)C(=O)O)cc3)nc2c(=O)[nH]1` (stereo unspecified), the T/C was 94 % of control (dose: 50.0 mg/kg/injection, schedule: Q01DX001 (ip), vehicle: carboxymethylcellulose (CMC)); 108 % of control under setting [5]; 94 % of control under setting [6].
For `CCC1(C(C)Br)OC2=C(CC(C#N)(C#N)C(C#N)(C#N)C2)O1` (stereo unspecified), the T/C runs as follows: (dose: 25.0 mg/kg/injection, schedule: Q01DX009 (ip), vehicle: other) 100 % of control; under setting [4], 87 % of control; (dose: 75.0 mg/kg/injection, schedule: Q01DX001 (ip), vehicle: saline) 100 % of control; (dose: 75.0 mg/kg/injection, schedule: Q01DX009 (ip), vehicle: other) 87 % of control.
On to `Cc1cccc(C2=N/C(=C\c3c(O)ccc4ccccc34)C2=O)c1`, for which the T/C reads like this: (dose: 100.0 mg/kg/injection, schedule: Q04DX002 (ip), vehicle: saline) 120 % of control; (dose: 200.0 mg/kg/injection, schedule: Q04DX002 (ip), vehicle: saline) 95 % of control; (dose: 400.0 mg/kg/injection, schedule: Q04DX002 (ip), vehicle: saline) 98 % of control.
